Earlier results on one compound are cited in patent US12683165B2, “Positive electrode additive for lithium secondary battery, positive electrode active material comprising same, positive electrode, and lithium secondary battery” (LG ENERGY SOLUTION, LTD., priority 2021, dated 2026).

The conditions of this data set: ether-based or carbonate-based solvent of a lithium-sulfur secondary battery electrolyte solution.

On to `O=c1[nH]c(=O)c2c3ccc4cccc5c6cccc7ccc(c12)c(c76)c3c45` [BPI, benzo[ghi]peryleneimide], for which the “dissolution in electrolyte solution solvent” value is given as “tends to be dissolved”.
